Reference: US8940760B2, “Pyrazolo pyridine derivatives as NADPH oxidase inhibitors” (Genkyotex SA, priority 2008, dated 2015)

Assays:
[1] = tested on: NOX activities; test: Nitroblue tetrazolium (NBT) test of intracellular and extracellular superoxide in cells; type: cell-based; conditions: DPI at final concentration of 10 μM, 'usually'
Description: Intracellular and extracellular superoxide was measured by a colorimetric technique using a quantitative nitroblue tetrazolium (NBT) test. SOD-inhibitable conversion of NBT to formazan, a fine blue precipitate, in the presence of superoxide anion was measured using Fluostar Optima spectrometer (BMG labtech). Following incubation with appropriate stimuli, cells were trypsinized (1× Trypsin-EDTA), collected by centrifugation, and washed with PBS to remove medium. 5×10^5 cells were plated on 48-well plates and incubated in Hank's balanced salt solution containing 0.5 mg/mL NBT with or without 800 U/mL SOD in the presence or absence of compounds according to the invention. As a control, DPI was included at a final concentration of 10 μM. After 2.5 h, cells were fixed and washed with methanol to remove non reduced NBT. The reduced formazan was then dissolved in 230 μl of 2M potassium hydroxide and in 280 μl of dimethylsulfoxide. The absorption was measured at 630 nm. For calculation, the absorbance at 630 nm was normalized for each individual well. The mean of the four blank values was substracted from each corrected value for each time point. NOX activities were expressed as % of the activity in control cells. Residual activity of DPI-treated cells was usually <10%.

[2] = tested on: NOX activity; test: Amplex Red measurement of extracellular hydrogen peroxide (NOX activity) in DMSO-differentiated HL60 cells; type: cell-based, human; conditions: DPI at final concentration of 10 μM, 'usually'
Description: Human acute myeloid leukemia cell line HL-60 was cultured in RPMI 1640 (Invitrogen) supplemented with 10% heat-inactivated calf serum, 2 mM glutamine, 100 U/mL penicillin (Sigma), and 100 μg streptomycin (Sigma) at 37° C. under a humidified atmosphere of 5% CO2. HL60 differentiation to the neutrophil phenotype was triggered by adding Me2SO (final concentration 1.25% v/v for 6 days) to the culture medium.
Extracellular hydrogen peroxide was measured using Amplex UltraRed (Molecular Probes). Cells were trypsinized (1× Trypsin-EDTA), collected by centrifugation, and resuspended in HBSS supplemented with 1% glucose. Cells were seeded into black 96-well plates at a density of 50,000 cells in 200 μl testing buffer (HBSS 1% glucose containing 0.005 U/mL horseradish peroxidase (Roche) and 50 μM Amplex Red in the presence or absence of compounds according to the invention. As a control, DPI was included at a final concentration of 10 μM. The plates were placed in the fluorescent Optima Fluorescent plate reader and kept at 37° C. during 20 min. Fluorescence was measured for 15 min with excitation and emission wavelengths of 544 nm and 590 nm respectively. NOX activities were expressed as % of the activity in control cells. Residual activity of DPI-treated cells was usually <10%.

[3] = tested on: NOX activities; test: H2DCF-DA fluorescence in TGF-β stimulated HUVEC; type: cell-based, human; conditions: HUVEC stimulated with TGF-β, 'usually'
Description: HUVEC are cultured in endothelial basal medium supplemented with hydrocortisone (1 μg/mL, CalbioChem), bovine brain extract (12 μg/mL), gentamicin (50 μg/mL, CalbioChem), amphotericin B (50 ng/mL, CalBioChem EGF (10 ng/mL, and 10% FCS until the fourth passage. When the fifth passage was started, cells were cultured with a lower concentration of FCS (2%) in the absence of EGF, if not indicated otherwise. All experiments were done with cells of the fifth passage. The cells were incubated with OxLDL (oxidized low-density lipoprotein) or its buffer as control for 24 h, before detection of O2^− formation.
HUVEC were plated on coverslips and made quiescent overnight in 0.5% BSA before stimulation with TGF-β. Cells were loaded for 10 minutes with 5 μM CM-H2DCFDA in phenol-red-free medium in the dark and then treated with TGF-β (R&D Systems) in the presence or absence of compounds according to the invention. Cells were then visualized by immunofluorescence microscopy after fixation and staining of the nuclei with DAPI or examined live using confocal microscopy. DCF fluorescence was visualized at an excitation wavelength of 488 nm and emission at 515 to 540 nm. […] For calculation, the absorbance at […] was normalized to absorbance at […] for each individual well. […] NOX activities were expressed as % of the activity in control cells. […]

[4] = tested on: NOX activities; test: Chemiluminescence (luminol) measurement of ROS in cells; type: cell-based; conditions: 'usually'
Description: ROS was measured using the chemiluminescent probe luminol. Cells were cultured and plated as for Amplex Red except that the Amplex Red agent was replaced by 10 μg/mL luminol (Sigma 09235). Light emission was recorded continuously at 37° C. for 60 minutes using the luminescence function of the FluoStar Optima fluorescent plate reader. The mean of the four blank values was substracted from each corrected value for each time point. NOX activities were expressed as % of the activity in control cells. Residual activity of DPI-treated cells was usually <10%.

Measured: Residual activity of DPI-treated cells (NOX activity as % of control cells)

c1ccc([I+]c2ccccc2)cc1 [DPI, Diphenyl-iodonium]
< 10%: all assays above
